Results as given in patent publication US20150342954A1, “2-BENZYL, 3-(PYRIMIDIN-2-YL) SUBSTITUTED PYRAZOLES USEFUL AS SGC STIMULATORS” (IRONWOOD PHARMACEUTICALS, INC., priority 2011, published 2015).
Where two headings read alike, the source gives them in different places.

Key:
[1] = biological target: T1, Human soluble guanylate cyclase enzyme (hsGC) (Homo sapiens, UniProt Q02108+Q02153); assay: Purified human sGC enzyme activity assay (without SNP); type: biochemical; details: compound at 30 μM, absence of SNP, fold over DMSO control
T1 construct: purchased Enzo Inc. ALX-201-177
T1 sequence (Q02153 1-619): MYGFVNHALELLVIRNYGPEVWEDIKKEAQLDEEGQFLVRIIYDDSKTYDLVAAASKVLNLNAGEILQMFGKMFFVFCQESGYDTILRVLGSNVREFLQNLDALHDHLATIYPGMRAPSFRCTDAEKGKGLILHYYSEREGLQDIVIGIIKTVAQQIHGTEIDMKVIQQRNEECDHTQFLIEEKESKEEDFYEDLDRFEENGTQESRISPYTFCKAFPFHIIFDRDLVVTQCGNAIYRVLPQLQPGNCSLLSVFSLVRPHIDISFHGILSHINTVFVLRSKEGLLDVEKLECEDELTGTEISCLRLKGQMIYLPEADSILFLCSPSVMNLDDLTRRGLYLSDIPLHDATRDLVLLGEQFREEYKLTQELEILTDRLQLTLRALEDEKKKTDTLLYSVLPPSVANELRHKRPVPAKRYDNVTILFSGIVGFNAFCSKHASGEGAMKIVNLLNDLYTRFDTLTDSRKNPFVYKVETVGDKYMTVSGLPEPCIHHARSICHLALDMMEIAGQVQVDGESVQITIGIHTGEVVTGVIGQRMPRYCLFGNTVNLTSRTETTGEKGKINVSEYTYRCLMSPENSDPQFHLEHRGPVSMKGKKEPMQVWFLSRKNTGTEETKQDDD
T1 sequence (Q02108 1-690): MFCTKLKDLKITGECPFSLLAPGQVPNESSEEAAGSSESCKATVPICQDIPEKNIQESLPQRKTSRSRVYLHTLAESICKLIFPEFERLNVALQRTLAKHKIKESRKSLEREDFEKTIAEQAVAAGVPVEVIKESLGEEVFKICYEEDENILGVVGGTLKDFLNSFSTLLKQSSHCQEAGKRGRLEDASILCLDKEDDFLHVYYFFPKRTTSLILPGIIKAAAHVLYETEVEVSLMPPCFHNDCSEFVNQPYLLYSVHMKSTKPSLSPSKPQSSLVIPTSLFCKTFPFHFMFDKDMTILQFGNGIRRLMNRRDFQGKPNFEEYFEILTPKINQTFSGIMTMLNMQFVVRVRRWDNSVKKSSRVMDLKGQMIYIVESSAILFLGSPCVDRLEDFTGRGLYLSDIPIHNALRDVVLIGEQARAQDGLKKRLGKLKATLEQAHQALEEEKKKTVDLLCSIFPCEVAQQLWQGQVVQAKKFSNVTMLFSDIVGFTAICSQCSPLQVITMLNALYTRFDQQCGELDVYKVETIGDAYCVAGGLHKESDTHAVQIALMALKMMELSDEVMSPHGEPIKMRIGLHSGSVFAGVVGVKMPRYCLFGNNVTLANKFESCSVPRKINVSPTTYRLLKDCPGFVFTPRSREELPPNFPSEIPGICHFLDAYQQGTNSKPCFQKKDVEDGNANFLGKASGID
Method: Biological Activity Measurements by the Purified Human sGC Enzyme Activity Assay
(§1) Human soluble guanylate cyclase enzyme (hsGC) obtained from Enzo Inc. (P/N: ALX-201-177) was used to evaluate the activity of test compounds. The assay reactions contained 0.1 M Tris (pH 8.0), 0.5 mg/mL BSA (pH 8.0), 2 mM DTT, 2 mM MgCl2, 300 μM GTP, 1 mM 3-isobutyl-1-methylxanthine (IBMX) and 5 ng human soluble guanylate cyclase enzyme. Test compounds in DMSO were then added (2 μL, 10 or 30 μM final concentration) and incubated (200 μL, 96-well plate format) at 37° C. for 30 minutes. The controls were carried out using 2 μL DMSO. After the 30 minute incubation, the reaction was stopped with the addition of 200 μl of cold methanol. The plate was then centrifuged at 3,200 rpm for 10 minutes at room temperature. Supernatants (200 μL) were collected and transferred to a new 96 well plate for analysis.
(§2) An 8 point cGMP (Sigma-Aldrich P/N: G6129) standard curve was prepared in assay buffer ranging from 0.156-20 μM. Samples for the cGMP standard curve were then diluted with an equal volume of methanol resulting in final cGMP concentrations of 0.078-10 μM.
(§3) The cGMP standard curve was generated using GraphPad Prism Software.
(§4) Calculations: Specific Activity was determined by the amount of cGMP formed (nmoles) per mg of sGC per min. Enzyme “fold-change” was calculated by dividing Specific Activity for test compounds by Specific Activity of DMSO controls.

[2] = biological target: T1, Human soluble guanylate cyclase enzyme (hsGC); assay: Purified human sGC enzyme synergy assay in the presence of 1 μM sodium nitroprusside (SNP); type: biochemical; details: compound at 30 μM, presence of 1 μM SNP
Method: as §1, §2, §3, §4
Biological Measurement by the Purified Human sGC Enzyme Synergy Performed in the Presence of Sodium Nitroprusside (SNP), a Nitric Oxide Donor
Enzyme assays were performed as described above, but was done in the absence or presence of 1 μM sodium nitroprusside (SNP).

[3] = biological target: T2, soluble guanylate cyclase (sGC) (Homo sapiens, UniProt Q02108+Q02153); assay: sGC-HEK-cGMP assay (run with SNP incubation); type: cell-based; details: for Emax: 10 μM SNP, 100% = 30 μM BAY 41-2272 with 10 μM SNP, read-out: HEK assay Emax-unconstrained (Percent); for HEK MEC-10: concentration that would elicit 10% of the Emax in the presence of 10 μM SNP; for EC50: in the presence of 10 μM SNP
T2 construct: endogenously expressing soluble guanylate cyclase (sGC); endogenous in cells; host or cells: HEK293
T2 sequence (Q02153 1-619): T1 sequence (Q02153 1-619)
T2 sequence (Q02108 1-690): T1 sequence (Q02108 1-690)
In short: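 HEK293 cells with endogenous sGC were pre-treated 15 min at 37 °C with 0.5 mM IBMX, then exposed to test compound plus sodium nitroprusside for 10 min at 37 °C. Cells were lysed in 0.1 M HCl (4 °C, 30 min), and cGMP was quantified by LC/MS against a standard curve. EC50 values came from concentration-response curves.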

[4] = Table 3A, top of concentration-response curve not fitted to 100%
[5] = Table 3D, read-out: HEK assay EC50
[6] = top of concentration-response curve not fitted to 100%, Table 3D, read-out: HEK assay EC50-unconstrained
[7] = Table 3B, top of concentration-response curve not fitted to 100%
[8] = Table 3E, read-out: HEK assay EC50
[9] = top of concentration-response curve not fitted to 100%, Table 3E, read-out: HEK assay EC50-unconstrained

CC(C)(CC(F)(F)F)C(=O)Nc1cnc(-c2cc(-c3ccon3)n(Cc3ccccc3F)n2)nc1N [Compound 53]
Enzyme Activity (increase at 30 μM without SNP) ([1]; Table 5A): C (5 to <10 fold increase) | Enzyme Activity (increase at 30 μM with SNP) ([2]; Table 5A): E (20 to 30 fold increase) | Emax [3, 4]: 60 to 80% | HEK MEC-10 ([3]; Table 3D): C (0.1 to <1 μM) | EC50 [3, 5]: < 20 µM | EC50 [3, 6]: 1 to 5 µM

O=c1[nH]c(-c2cc(-c3ccon3)n(Cc3ccccc3F)n2)nc(Cl)c1Cl [Compound 54]
Enzyme Activity (increase at 30 μM without SNP) ([1]; Table 5A): A (no increase to <2 fold increase) | Enzyme Activity (increase at 30 μM with SNP) ([2]; Table 5A): C (5 to <10 fold increase) | Emax [3, 4]: 40 to 60% | HEK MEC-10 ([3]; Table 3D): D (1 to <10 μM) | EC50 [3, 5]: 40 to 60 µM | EC50 [3, 6]: 5 to 10 µM

CC1(C(=O)Nc2cnc(-c3cc(-c4ncco4)n(Cc4ccccc4F)n3)nc2N)CC1(F)F (stereo not shown) [Compound 55]
Enzyme Activity (increase at 30 μM without SNP) ([1]; Table 5A): C (5 to <10 fold increase) | Enzyme Activity (increase at 30 μM with SNP) ([2]; Table 5A): F (>30 fold increase) | Emax [3, 4]: 100 to 120% | HEK MEC-10 ([3]; Table 3D): C (0.1 to <1 μM) | EC50 [3, 5]: < 20 µM | EC50 [3, 6]: 1 to 5 µM

NNc1nc(-c2cc(-c3ccon3)n(Cc3ccccc3F)n2)ncc1F [Compound 56]
Enzyme Activity (increase at 30 μM without SNP) ([1]; Table 5A): C (5 to <10 fold increase) | Enzyme Activity (increase at 30 μM with SNP) ([2]; Table 5A): D (10 or <20 fold increase) | Emax [3, 4]: 60 to 80% | HEK MEC-10 ([3]; Table 3D): B (0.01 to <0.1 μM) | EC50 [3, 5]: < 20 µM | EC50 [3, 6]: 0.5 to 1 µM

CCCCCCCCCCC(=O)Nc1cnc(-c2cc(-c3ccon3)n(Cc3ccccc3F)n2)nc1N [Compound 58]
Enzyme Activity (increase at 30 μM without SNP) ([1]; Table 5A): A (no increase to <2 fold increase) | Enzyme Activity (increase at 30 μM with SNP) ([2]; Table 5A): B (2 to <5 fold increase) | HEK MEC-10 ([3]; Table 3D): E (10 to 50 μM) | EC50 [3, 5]: 600 to 900 µM

O=c1[nH]c(-c2cc(-c3ccon3)n(Cc3ccccc3F)n2)ncc1S(=O)(=O)N1CCOCC1 [Compound 60]
Enzyme Activity (increase at 30 μM without SNP) ([1]; Table 5A): B (2 to <5 fold increase) | Enzyme Activity (increase at 30 μM with SNP) ([2]; Table 5A): D (10 or <20 fold increase) | Emax [3, 4]: 80 to 100% | HEK MEC-10 ([3]; Table 3D): C (0.1 to <1 μM) | EC50 [3, 5]: < 20 µM | EC50 [3, 6]: 0.5 to 1 µM

O=c1[nH]c(-c2cc(-c3ccon3)n(Cc3cccnc3F)n2)ncc1F [Compound 67]
Enzyme Activity (increase at 30 μM without SNP) ([1]; Table 5A): A (no increase to <2 fold increase) | Enzyme Activity (increase at 30 μM with SNP) ([2]; Table 5A): B (2 to <5 fold increase) | Emax [3, 4]: 20 to 40% | HEK MEC-10 ([3]; Table 3D): B (0.01 to <0.1 μM) | EC50 [3, 5]: 40 to 60 µM | EC50 [3, 6]: 0.01 to 0.5 µM

O=c1[nH]c(-c2cc(-c3ccccn3)n(Cc3ccccc3F)n2)ncc1F [Compound 68]
Enzyme Activity (increase at 30 μM without SNP) ([1]; Table 5B): A (no increase to <2 fold increase) | Enzyme Activity (increase at 30 μM with SNP) ([2]; Table 5B): C (5 to <10 fold increase) | Emax [3, 7]: 40 to 60% | HEK MEC-10 ([3]; Table 3E): D (1 to <10 μM) | EC50 [3, 8]: 40 to 60 µM | EC50 [3, 9]: 5 to 10 µM

Nc1nc(-c2cc(-c3ccon3)n(Cc3ccccc3F)n2)ncc1NC(=O)C1(N)CC1 [Compound 69]
Enzyme Activity (increase at 30 μM without SNP) ([1]; Table 5B): B (2 to <5 fold increase) | Enzyme Activity (increase at 30 μM with SNP) ([2]; Table 5B): D (10 or <20 fold increase) | Emax [3, 7]: 80 to 100% | HEK MEC-10 ([3]; Table 3E): A (0.001 to <0.01 μM) | EC50 [3, 8]: 60 to 100 µM | EC50 [3, 9]: 0.5 to 1 µM

O=c1[nH]c(-c2cc(-c3ccon3)n(Cc3ccc(F)cc3F)n2)ncc1F [Compound 70]
Enzyme Activity (increase at 30 μM without SNP) ([1]; Table 5B): C (5 to <10 fold increase) | Enzyme Activity (increase at 30 μM with SNP) ([2]; Table 5B): D (10 or <20 fold increase) | Emax [3, 7]: 40 to 60% | HEK MEC-10 ([3]; Table 3E): C (0.1 to <1 μM) | EC50 [3, 8]: 40 to 60 µM | EC50 [3, 9]: 0.01 to 0.5 µM

Nc1ccnc(-c2cc(-c3ccon3)n(Cc3ccc(F)cc3F)n2)n1 [Compound 71]
Enzyme Activity (increase at 30 μM without SNP) ([1]; Table 5B): A (no increase to <2 fold increase) | Enzyme Activity (increase at 30 μM with SNP) ([2]; Table 5B): D (10 or <20 fold increase) | Emax [3, 7]: 60 to 80% | HEK MEC-10 ([3]; Table 3E): C (0.1 to <1 μM) | EC50 [3, 8]: 60 to 100 µM | EC50 [3, 9]: 1 to 5 µM

O=c1[nH]c(-c2cc(-c3ccon3)n(Cc3cc(F)ccc3F)n2)ncc1F [Compound 72]
Enzyme Activity (increase at 30 μM without SNP) ([1]; Table 5B): D (10 or <20 fold increase) | Enzyme Activity (increase at 30 μM with SNP) ([2]; Table 5B): D (10 or <20 fold increase) | Emax [3, 7]: 40 to 60% | HEK MEC-10 ([3]; Table 3E): B (0.01 to <0.1 μM) | EC50 [3, 8]: 40 to 60 µM | EC50 [3, 9]: 0.01 to 0.5 µM
